# Laboratory results reported in patent US20260158011A1 (Achieve Life Sciences, Inc., priority 2023, published 2026).
# System: adult e-cigarette users
# Conditions: 12 Weeks, N = 106, Safety Set
# Text: A second measurement consisted of biochemically verified continuous vaping abstinence at any time during treatment, with vaping abstinence at Week 3-6 or Week 6-9 for of cytisinicline treatment vs placebo. 7-day point prevalence rates were compared for vaping abstinence (Week 2 to 12) (FIG. 62). An additional measurement included reduction in daily vaping as measured by cotinine, where cytisinicline treatment vs placebo for a reduction in nicotine vaping using weekly quantitative cotinine levels from Week 2 to Week 12. Safety was assessed by adverse effects and serious adverse effects, considering number, severity, and attribution to study drug.
smiles,measurement,value
"O=c1cccc2n1C[C@@H]1CNC[C@H]2C1 [cytisine, (−)-Cytisine]","At Least One AE, Events",123 Events
same,"At Least One AE, subjects",56 (52.8) n (%)
same,At Least One Related Serious TEAE,0 n (%)/Events
same,At Least One Serious TEAE,0 n (%)/Events
same,"At Least One TEAE Leading to Dose Reduction, Dose Interrupted or Study Drug Discontinuation",7 (6.6) n (%)
same,Subjects with Dose Reduction,3 (2.8) n (%)
same,"TEAE Abdominal discomfort, subjects %",(0.9) %
same,"TEAE Abdominal discomfort, subjects n",1 n
same,"TEAE Abnormal dreams, subjects %",(12.3) %
same,"TEAE Abnormal dreams, subjects n",13 n
same,"TEAE Action Taken With Study Drug: Dose Interrupted, Events",1 Events
same,"TEAE Action Taken With Study Drug: Dose Interrupted, subjects",1 (0.9) n (%)
same,"TEAE Action Taken With Study Drug: Dose Not Changed, Events",101 Events
same,"TEAE Action Taken With Study Drug: Dose Not Changed, subjects",51 (48.1) n (%)
same,"TEAE Action Taken With Study Drug: Dose Reduced, Events",3 Events
same,"TEAE Action Taken With Study Drug: Dose Reduced, subjects",3 (2.8) n (%)
same,"TEAE Action Taken With Study Drug: Drug Withdrawn, Events",7 Events
same,"TEAE Action Taken With Study Drug: Drug Withdrawn, subjects",4 (3.8) n (%)
same,"TEAE Action Taken With Study Drug: Not Applicable, Events",7 Events
same,"TEAE Action Taken With Study Drug: Not Applicable, subjects",5 (4.7) n (%)
same,"TEAE Agitation, subjects",0 n (%)
same,"TEAE Akathisia, subjects %",(0.9) %
same,"TEAE Akathisia, subjects n",1 n
same,"TEAE Alanine aminotransferase increased, subjects",0 n (%)
same,"TEAE Alveolar osteitis, subjects",0 n (%)
same,"TEAE Anal fissure, subjects %",(0.9) %
same,"TEAE Anal fissure, subjects n",1 n
same,"TEAE Animal bite, subjects %",(0.9) %
same,"TEAE Animal bite, subjects n",1 n
same,"TEAE Anxiety, subjects %",(9.4) %
same,"TEAE Anxiety, subjects n",10 n
same,"TEAE Aspartate aminotransferase increased, subjects",0 n (%)
same,"TEAE Attention deficit hyperactivity disorder, subjects %",(0.9) %
same,"TEAE Attention deficit hyperactivity disorder, subjects n",1 n
same,"TEAE Back pain, subjects %",(0.9) %
same,"TEAE Back pain, subjects n",1 n
same,"TEAE Bronchitis, subjects %",(1.9) %
same,"TEAE Bronchitis, subjects n",2 n
same,"TEAE Chlamydial infection, subjects %",(0.9) %
same,"TEAE Chlamydial infection, subjects n",1 n
same,"TEAE Concussion, subjects",0 n (%)
same,"TEAE Constipation, subjects %",(1.9) %
same,"TEAE Constipation, subjects n",2 n
same,"TEAE Decreased appetite, subjects %",(0.9) %
same,"TEAE Decreased appetite, subjects n",1 n
same,"TEAE Depressed mood, subjects",0 n (%)
same,"TEAE Depression, subjects",0 n (%)
same,"TEAE Dermatitis contact, subjects %",(0.9) %
same,"TEAE Dermatitis contact, subjects n",1 n
same,"TEAE Disturbance in attention, subjects %",(0.9) %
same,"TEAE Disturbance in attention, subjects n",1 n
same,"TEAE Dizziness, subjects %",(2.8) %
same,"TEAE Dizziness, subjects n",3 n
same,"TEAE Dry mouth, subjects %",(1.9) %
same,"TEAE Dry mouth, subjects n",2 n
same,"TEAE Dyspepsia, subjects %",(0.9) %
same,"TEAE Dyspepsia, subjects n",1 n
same,"TEAE Ear infection, subjects",0 n (%)
same,"TEAE Eye pruritus, subjects %",(0.9) %
same,"TEAE Eye pruritus, subjects n",1 n
same,"TEAE Fatigue, subjects %",(5.7) %
same,"TEAE Fatigue, subjects n",6 n
same,"TEAE Female sterilisation, subjects %",(0.9) %
same,"TEAE Female sterilisation, subjects n",1 n
same,"TEAE Gastroenteritis norovirus, subjects",0 n (%)
same,"TEAE Gastroenteritis viral, subjects",0 n (%)
same,"TEAE Gastroenteritis, subjects %",(1.9) %
same,"TEAE Gastroenteritis, subjects n",2 n
same,"TEAE Gout, subjects %",(0.9) %
same,"TEAE Gout, subjects n",1 n
same,"TEAE Headache, subjects %",(6.6) %
same,"TEAE Headache, subjects n",7 n
same,"TEAE Hot flush, subjects %",(0.9) %
same,"TEAE Hot flush, subjects n",1 n
same,"TEAE Hyperhidrosis, subjects",0 n (%)
same,"TEAE Increased appetite, subjects %",(0.9) %
same,"TEAE Increased appetite, subjects n",1 n
same,"TEAE Insomnia, subjects %",(10.4) %
same,"TEAE Insomnia, subjects n",11 n
same,"TEAE Irritability, subjects %",(2.8) %
same,"TEAE Irritability, subjects n",3 n
same,"TEAE Leading to Dose Reduction, Dose Interrupted or Study Drug Discontinuation: Abdominal discomfort",1 (0.9) n (%)
same,"TEAE Leading to Dose Reduction, Dose Interrupted or Study Drug Discontinuation: Abnormal dreams",1 (0.9) n (%)
same,"TEAE Leading to Dose Reduction, Dose Interrupted or Study Drug Discontinuation: Anal fissure",1 (0.9) n (%)
same,"TEAE Leading to Dose Reduction, Dose Interrupted or Study Drug Discontinuation: Anxiety",2 (1.9) n (%)
same,"TEAE Leading to Dose Reduction, Dose Interrupted or Study Drug Discontinuation: Depression",0 n (%)
same,"TEAE Leading to Dose Reduction, Dose Interrupted or Study Drug Discontinuation: Fatigue",1 (0.9) n (%)
same,"TEAE Leading to Dose Reduction, Dose Interrupted or Study Drug Discontinuation: Headache",0 n (%)
same,"TEAE Leading to Dose Reduction, Dose Interrupted or Study Drug Discontinuation: Insomnia",2 (1.9) n (%)
same,"TEAE Leading to Dose Reduction, Dose Interrupted or Study Drug Discontinuation: Irritability",1 (0.9) n (%)
same,"TEAE Leading to Dose Reduction, Dose Interrupted or Study Drug Discontinuation: Nausea",0 n (%)
same,"TEAE Leading to Dose Reduction, Dose Interrupted or Study Drug Discontinuation: Panic attack",2 (1.9) n (%)
same,"TEAE Leading to Dose Reduction, Dose Interrupted or Study Drug Discontinuation: Pregnancy",0 n (%)
same,"TEAE Menorrhagia, subjects %",(0.9) %
same,"TEAE Menorrhagia, subjects n",1 n
same,"TEAE Migraine, subjects %",(0.9) %
